“Also recorded” adds a separate entry of the source.
Columns and labels:
rat hepatic microsomes [1] = assay: NADPH consumption by hepatic microsomes; type: biochemical; conditions: for IC50: NADPH 500 μM + Fe^2+ 20 μM + ADP 500 μM
rat hepatic microsomes [2] = assay: In vitro inhibition of lipid peroxidation (MDA formation) on rat hepatic microsomes; type: biochemical; conditions: for IC50: in vitro, rat hepatic microsomes + NADPH + Fe^2+ ADP
[3] = Anti-ulcer activity after i.p. administration on ASA induced gastric ulcers in rats; type: in vivo; conditions: for Changes in U.I. in comparison with controls / No. of stomach without lesions / Ulceration index (U.I.) mean: i.p., n = 10
From the text: This activity is believed to be a consequence of its healing activity and microcirculation protecting activity.

rat brain homogenate = assay: In vitro inhibition of lipid peroxidation (MDA formation) on rat brain homogenate; type: biochemical; conditions: for IC50: rat brain homogenate
Experimental: (§1) Proanthocyanidine A2 was assayed for anti-lipid peroxidation activity "in vitro" on rat brain homogenate according to the method of Saeed S. A. et al., Biochem. Soc. Trans 9, 442-443, 1981 and on rat hepatic microsomes according to the method of Jha H. C. et al., Biochem. Pharmacol. 34 , 1367-1369, 1985. […] This activity was confirmed on a rat brain "ex vivo" test.

[4] = Healing (cicatrising) activity, general statement (topical and oral route, normal and steroid treated animals); conditions: in vivo
[5] = Activity on wound scar resistance in normal mice by oral route (force necessary for breaking a cutaneous scar); type: in vivo; conditions: n = 20
From the text: The method used was that of Sixth et al., Arzneim. Forsch. 18, 1460, 1968.

[6] = Wound healing activity by oral route in rats treated with prednisone; type: in vivo; conditions: for Surface after 3 days of administrations (m ± s.e.) / percent variation of surface in comparison with prednisone controls: oral; for percent variation of surface in comparison with prednisone controls: after 3 days
From the text: (§2) The triterpene fraction obtained from Centella asiatica (CATS), a well-known cicatrizant or healing agent widely used in some European countries, has been chosen as comparison drug.

[7] = Wound healing activity on prednisone treated rats by topical application; type: in vivo
From the text: as §2

rat brain = assay: Rat brain ex vivo anti-lipid peroxidation test
Experimental: as §1

[8] = Capillary resistance in rats fed on vitamin P deprived diet; type: in vivo; conditions: for Percent increase (capillary resistance) in comparison with controls: n = 8
Experimental: The latter was evaluated by the method of Charlier R. et al., Arch. Int. Physiol. Bioch.

[9] = Acute toxicity on topical administration; conditions: administered topically
[10] = Acute toxicity in the rat; conditions: in vivo
Experimental: (§3) The acute toxicity of proanthocyanidine A2 was determined in the mouse and rat on administration by the oral and intreperitoneal routes.

[11] = Acute toxicity in the mouse; conditions: for LD50: mouse, in vivo
Experimental: as §3

## Oc1cc(O)c2c(c1)O[C@@]1(c3ccc(O)c(O)c3)Oc3cc(O)c4c(c3[C@@H]2[C@H]1O)O[C@H](c1ccc(O)c(O)c1)[C@H](O)C4 [Proanthocyanidine A2]
Rat hepatic microsomes [1]
  IC50: 14000 nM
Rat hepatic microsomes [1]; hepatic microsomes
  column headed by drawing 3 (hepatic microsomes) (ratio of NADPH consumption IC50 to MDA formation IC50, by arithmetic): 17.5
Rat hepatic microsomes [1]; in vitro, hepatic microsomes
  inhibiting activity on NADPH consumption (in words): low inhibiting activity
Rat hepatic microsomes [2]
  column headed by drawing 2 under MDA formation (ratio of hepatic microsomes IC50 to brain homogenate IC50, by arithmetic): 1.8
  IC50: 800 nM
[3]; 100 mg/kg
  Changes in U.I. in comparison with controls: -18,4
  No. of stomach without lesions: 0
  Ulceration index (U.I.) mean: 39,6
[3]; 200 mg/kg
  Changes in U.I. in comparison with controls: -28,1
  No. of stomach without lesions: 0
  Ulceration index (U.I.) mean: 34,9
[3]; 400 mg/kg
  Changes in U.I. in comparison with controls: -40,8
  No. of stomach without lesions: 0
  Ulceration index (U.I.) mean: 28,7
[3]; ulcer protection tests
  anti-ulcer activity (in words): active in ulcer protection tests; also recorded: particularly active as an anti-ulcer agent
Rat brain homogenate
  anti-lipid peroxidation activity (in words): strong anti-lipid peroxidation activity
Rat brain homogenate; in vitro
  IC50: 450 nM
Rat brain homogenate; in vitro, rat brain homogenate and rat hepatic microsomes
  inhibition of MDA (malondialdehyde) formation (in words): strongly inhibited
[4]
  healing activity (in words): higher than that of known drugs employed in this therapeutic field; also recorded: manifests itself by the topical and also oral route both in normal animals and in animals in which the healing process has been slowed down by treatment with steroids; also recorded: superior to that of known drugs employed in this field
[5]; 100 mg/kg
  Percent increase in comparison (with controls): +32.5%
  Tension (m + S.E.): 104.11 + 4.25 g
[5]; 200 mg/kg
  Percent increase in comparison (with controls): +46.6%
  Tension (m + S.E.): 115.12 + 4.90 g
[6]; 50 mg/kg
  Surface after 3 days of administrations (m ± s.e.): 280.47 ± 7.01 mm^2
  percent variation of surface in comparison with prednisone controls: -9.15%
[6]; 100 mg/kg
  Surface after 3 days of administrations (m ± s.e.): 271.82 ± 5.35 mm^2
  percent variation of surface in comparison with prednisone controls: -11.95%
[6]; 200 mg/kg
  Surface after 3 days of administrations (m ± s.e.): 265.88 ± 4.38 mm^2
  percent variation of surface in comparison with prednisone controls: -13.87%
[6]; 400 mg/kg
  Surface after 3 days of administrations (m ± s.e.): 259.99 ± 7.72 mm^2
  percent variation of surface in comparison with prednisone controls: -15.78%
[6]; rats, Tables 2 and 3
  reduction of the area of wounds (in words): favourable effect
[7]; concentration 1%, day 0 (baseline), n = 10
  Wound area (m ± s.e.): 324.55 ± 3.77 mm^2
[7]; concentration 1%, day 1
  percent variation of wound area in comparison with prednisone controls: -8.17%
[7]; concentration 1%, day 1, n = 10
  Wound area (m ± s.e.): 317.39 ± 3.37 mm^2
[7]; concentration 1%, day 2
  percent variation of wound area in comparison with prednisone controls: -9.70%
[7]; concentration 1%, day 2, n = 10
  Wound area (m ± s.e.): 315.04 ± 3.58 mm^2
[7]; concentration 1%, day 3
  percent variation of wound area in comparison with prednisone controls: -9.60%
[7]; concentration 1%, day 3, n = 10
  Wound area (m ± s.e.): 308.01 ± 3.77 mm^2
[7]; concentration 2%, day 0 (baseline), n = 10
  Wound area (m ± s.e.): 327.71 ± 2.92 mm^2
[7]; concentration 2%, day 1
  percent variation of wound area in comparison with prednisone controls: -8.17%
[7]; concentration 2%, day 1, n = 10
  Wound area (m ± s.e.): 317.39 ± 3.36 mm^2
[7]; concentration 2%, day 2
  percent variation of wound area in comparison with prednisone controls: -12.38%
[7]; concentration 2%, day 2, n = 10
  Wound area (m ± s.e.): 305.69 ± 3.89 mm^2
[7]; concentration 2%, day 3
  percent variation of wound area in comparison with prednisone controls: -15.88%
[7]; concentration 2%, day 3, n = 10
  Wound area (m ± s.e.): 286.62 ± 3.74 mm^2
Rat brain
  anti-lipid peroxidation activity ex vivo (in words): confirmed
[8]; capillary permeability and resistance
  vasotropic / venotonic activity (in words): possesses a vasotropic activity in terms of modification of capillary permeability and resistance; also recorded: normalizing conditions of impaired capillary permeability and capillary fragility
[8]; oral 200 mg/kg × 3 days, 0 hours after third administration
  Percent increase (capillary resistance) in comparison with controls: 5%
[8]; oral 200 mg/kg × 3 days, 2 hours after third administration
  Percent increase (capillary resistance) in comparison with controls: 9%
[8]; oral 200 mg/kg × 3 days, 4 hours after third administration
  Percent increase (capillary resistance) in comparison with controls: 9%
[8]; oral 200 mg/kg × 3 days, 6 hours after third administration
  Percent increase (capillary resistance) in comparison with controls: 6%
[8]; oral 400 mg/kg × 3 days, 0 hours after third administration
  Percent increase (capillary resistance) in comparison with controls: 7%
[8]; oral 400 mg/kg × 3 days, 2 hours after third administration
  Percent increase (capillary resistance) in comparison with controls: 15%
[8]; oral 400 mg/kg × 3 days, 4 hours after third administration
  Percent increase (capillary resistance) in comparison with controls: 14%
[8]; oral 400 mg/kg × 3 days, 6 hours after third administration
  Percent increase (capillary resistance) in comparison with controls: 13%
[9]
  acute toxicity (in words): negligable acute toxicity
[10]; ip
  LD50: > 3000 mg/kg
[10]; po
  LD50: > 6000 mg/kg
[11]; ip
  LD50: > 6000 mg/kg
[11]; po
  LD50: > 6000 mg/kg
[11]; oral and intraperitoneal routes, mouse and rat
  acute toxicity (in words): does not exhibit significant acute toxicity

## O=c1c(O)c(-c2ccc(O)c(O)c2)oc2cc(O)cc(O)c12 [Quercetin, reference compound]
Rat hepatic microsomes [1]
  IC50: 17000 nM
Rat hepatic microsomes [1]; hepatic microsomes
  column headed by drawing 3 (hepatic microsomes) (ratio of NADPH consumption IC50 to MDA formation IC50, by arithmetic): 3.3
Rat hepatic microsomes [2]
  column headed by drawing 2 under MDA formation (ratio of hepatic microsomes IC50 to brain homogenate IC50, by arithmetic): 5.7
  IC50: 5100 nM
Rat brain homogenate; in vitro
  IC50: 900 nM

— patent US4925870A, “Therapeutic use of proanthocyanidine A2 as a cytoprotective agent” (Inverni Della Beffa SpA, priority 1985, dated 1990)
